# Laboratory results reported in patent publication US20170368082A1, “FORMULATIONS OF BRINCIDOFOVIR” (priority 2016, published 2017).
# Assay: Mass balance (excretion of total radioactivity) after 2-h IV infusion of [^14C]brincidofovir
# Type: in vivo, male Sprague Dawley rats
# Procedure: All animals were obtained from Hilltop Lab Animals, Inc. (Scottdale, Pa.). Rats weighed between 214 and 265 g at dosing. […] Three dosing formulations (one for high dose IV, one for low dose IV, and one for PO dose) were prepared at QPS on the day of dosing. […] The IV dose formulation for Group 5 and the PO dose formulation for Groups 6 and 7 contained higher concentration of buffer so that the final buffer concentration was approximately 10 mM in all dose formulations. […] Urine samples were collected from each animal into pre-labeled urine collection tubes at pre-dose (overnight) and at intervals of 0-8 h, 8-24 h, and at every subsequent 24 h interval until 168 h post-dose. All urine specimens were collected over dry ice. The total weight of each urine collection was documented, and the samples were stored frozen at approximately −70° C. until LSC analysis. Samples were maintained at approximately −70° C. following analysis, and were saved for further analysis, to be conducted under a separate protocol. Feces samples were collected from each animal into a pre-labeled feces collection tube at pre-dose (overnight) and at 24 h intervals post-dose until 168 h post-dose. Feces specimens were collected over dry ice and the total weight of each feces sample was documented. Feces samples were stored at approximately −70° C. until homogenization and LSC analysis, were maintained at approximately −70° C. following analysis, and were saved for further analysis, to be conducted under a separate protocol. Feces were homogenized and analyzed for total radioactivity content. […] The actual weights of the individual aliquots and the amount of solvent used in homogenization were recorded. Pre-weighed portions of each feces homogenate were placed into a CombustoCone® that contained a CombustoPad®, allowed to dry over-night in a fume hood, and were burned completely in the sample oxidizer. […] Volumes or weights of sample aliquots were documented in the study records.
smiles,measurement,setting,value
CCCCCCCCCCCCCCCCOCCCOP(=O)(O)CO[C@H](CO)Cn1ccc(N)nc1=O [[^14C]brincidofovir],Radioactivity recovered in feces,"15 mg/kg 2-h IV, 168 h",42.2 % of administered dose
same,Radioactivity recovered in urine,"15 mg/kg 2-h IV, 168 h",51.2 % of administered dose
same,Total recovery in urine and feces combined,168 h,93.5 % of the dose
same,Percent Recovery of total radioactivity,"Feces 0-24 h, Mean, 15 mg/kg IV",36.7 % Dose
same,Percent Recovery of total radioactivity,"Feces 0-24 h, Rat 01, 15 mg/kg IV",37.3 % Dose
same,Percent Recovery of total radioactivity,"Feces 0-24 h, Rat 02, 15 mg/kg IV",37.6 % Dose
same,Percent Recovery of total radioactivity,"Feces 0-24 h, Rat 03, 15 mg/kg IV",35.1 % Dose
same,Percent Recovery of total radioactivity,"Feces 24-48 h, Mean, 15 mg/kg IV",3.8 % Dose
same,Percent Recovery of total radioactivity,"Feces 24-48 h, Rat 01, 15 mg/kg IV",3.4 % Dose
same,Percent Recovery of total radioactivity,"Feces 24-48 h, Rat 02, 15 mg/kg IV",4.6 % Dose
same,Percent Recovery of total radioactivity,"Feces 24-48 h, Rat 03, 15 mg/kg IV",3.5 % Dose
same,Percent Recovery of total radioactivity,"Feces 48-72 h, Mean, 15 mg/kg IV",0.9 % Dose
same,Percent Recovery of total radioactivity,"Feces 48-72 h, Rat 01, 15 mg/kg IV",0.9 % Dose
same,Percent Recovery of total radioactivity,"Feces 48-72 h, Rat 02, 15 mg/kg IV",1.0 % Dose
same,Percent Recovery of total radioactivity,"Feces 48-72 h, Rat 03, 15 mg/kg IV",0.8 % Dose
same,Percent Recovery of total radioactivity,"Feces 72-96 h, Mean, 15 mg/kg IV",0.4 % Dose
same,Percent Recovery of total radioactivity,"Feces 72-96 h, Rat 01, 15 mg/kg IV",0.4 % Dose
same,Percent Recovery of total radioactivity,"Feces 72-96 h, Rat 02, 15 mg/kg IV",0.4 % Dose
same,Percent Recovery of total radioactivity,"Feces 72-96 h, Rat 03, 15 mg/kg IV",0.4 % Dose
same,Percent Recovery of total radioactivity,"Feces 96-120 h, Mean, 15 mg/kg IV",0.2 % Dose
same,Percent Recovery of total radioactivity,"Feces 96-120 h, Rat 01, 15 mg/kg IV",0.2 % Dose
same,Percent Recovery of total radioactivity,"Feces 96-120 h, Rat 02, 15 mg/kg IV",0.2 % Dose
same,Percent Recovery of total radioactivity,"Feces 96-120 h, Rat 03, 15 mg/kg IV",0.2 % Dose
same,Percent Recovery of total radioactivity,"Feces 120-144 h, Mean, 15 mg/kg IV",0.1 % Dose
same,Percent Recovery of total radioactivity,"Feces 120-144 h, Rat 01, 15 mg/kg IV",0.1 % Dose
same,Percent Recovery of total radioactivity,"Feces 120-144 h, Rat 02, 15 mg/kg IV",0.1 % Dose
same,Percent Recovery of total radioactivity,"Feces 120-144 h, Rat 03, 15 mg/kg IV",0.1 % Dose
same,Percent Recovery of total radioactivity,"Feces 144-168 h, Mean, 15 mg/kg IV",0.1 % Dose
same,Percent Recovery of total radioactivity,"Feces 144-168 h, Rat 01, 15 mg/kg IV",0.1 % Dose
same,Percent Recovery of total radioactivity,"Feces 144-168 h, Rat 02, 15 mg/kg IV",0.1 % Dose
same,Percent Recovery of total radioactivity,"Feces 144-168 h, Rat 03, 15 mg/kg IV",0.1 % Dose
same,Percent Recovery of total radioactivity,"Feces Subtotal (0-168 h), Mean, 15 mg/kg IV",42.2 % Dose
same,Percent Recovery of total radioactivity,"Feces Subtotal (0-168 h), Rat 01, 15 mg/kg IV",42.4 % Dose
same,Percent Recovery of total radioactivity,"Feces Subtotal (0-168 h), Rat 02, 15 mg/kg IV",44.2 % Dose
same,Percent Recovery of total radioactivity,"Feces Subtotal (0-168 h), Rat 03, 15 mg/kg IV",40.2 % Dose
same,Percent Recovery of total radioactivity,"Total urine + feces (0-168 h), Mean, 15 mg/kg IV",93.5 % Dose
same,Percent Recovery of total radioactivity,"Total urine + feces (0-168 h), Rat 01, 15 mg/kg IV",93.6 % Dose
same,Percent Recovery of total radioactivity,"Total urine + feces (0-168 h), Rat 02, 15 mg/kg IV",91.6 % Dose
same,Percent Recovery of total radioactivity,"Total urine + feces (0-168 h), Rat 03, 15 mg/kg IV",95.2 % Dose
same,Percent Recovery of total radioactivity,"Urine 0-8 h, Mean, 15 mg/kg IV",31.0 % Dose
same,Percent Recovery of total radioactivity,"Urine 0-8 h, Rat 01, 15 mg/kg IV",33.0 % Dose
same,Percent Recovery of total radioactivity,"Urine 0-8 h, Rat 02, 15 mg/kg IV",29.3 % Dose
same,Percent Recovery of total radioactivity,"Urine 0-8 h, Rat 03, 15 mg/kg IV",30.7 % Dose
same,Percent Recovery of total radioactivity,"Urine 8-24 h, Mean, 15 mg/kg IV",12.8 % Dose
same,Percent Recovery of total radioactivity,"Urine 8-24 h, Rat 01, 15 mg/kg IV",10.7 % Dose
same,Percent Recovery of total radioactivity,"Urine 8-24 h, Rat 02, 15 mg/kg IV",11.5 % Dose
same,Percent Recovery of total radioactivity,"Urine 8-24 h, Rat 03, 15 mg/kg IV",16.2 % Dose
same,Percent Recovery of total radioactivity,"Urine 24-48 h, Mean, 15 mg/kg IV",4.1 % Dose
same,Percent Recovery of total radioactivity,"Urine 24-48 h, Rat 01, 15 mg/kg IV",4.3 % Dose
same,Percent Recovery of total radioactivity,"Urine 24-48 h, Rat 02, 15 mg/kg IV",3.6 % Dose
same,Percent Recovery of total radioactivity,"Urine 24-48 h, Rat 03, 15 mg/kg IV",4.5 % Dose
same,Percent Recovery of total radioactivity,"Urine 48-72 h, Mean, 15 mg/kg IV",1.7 % Dose
same,Percent Recovery of total radioactivity,"Urine 48-72 h, Rat 01, 15 mg/kg IV",1.6 % Dose
same,Percent Recovery of total radioactivity,"Urine 48-72 h, Rat 02, 15 mg/kg IV",1.6 % Dose
same,Percent Recovery of total radioactivity,"Urine 48-72 h, Rat 03, 15 mg/kg IV",1.9 % Dose
same,Percent Recovery of total radioactivity,"Urine 72-96 h, Mean, 15 mg/kg IV",0.8 % Dose
same,Percent Recovery of total radioactivity,"Urine 72-96 h, Rat 01, 15 mg/kg IV",0.8 % Dose
same,Percent Recovery of total radioactivity,"Urine 72-96 h, Rat 02, 15 mg/kg IV",0.8 % Dose
same,Percent Recovery of total radioactivity,"Urine 72-96 h, Rat 03, 15 mg/kg IV",0.8 % Dose
same,Percent Recovery of total radioactivity,"Urine 96-120 h, Mean, 15 mg/kg IV",0.4 % Dose
same,Percent Recovery of total radioactivity,"Urine 96-120 h, Rat 01, 15 mg/kg IV",0.4 % Dose
same,Percent Recovery of total radioactivity,"Urine 96-120 h, Rat 02, 15 mg/kg IV",0.3 % Dose
same,Percent Recovery of total radioactivity,"Urine 96-120 h, Rat 03, 15 mg/kg IV",0.5 % Dose
same,Percent Recovery of total radioactivity,"Urine 120-144 h, Mean, 15 mg/kg IV",0.2 % Dose
same,Percent Recovery of total radioactivity,"Urine 120-144 h, Rat 01, 15 mg/kg IV",0.2 % Dose
same,Percent Recovery of total radioactivity,"Urine 120-144 h, Rat 02, 15 mg/kg IV",0.2 % Dose
same,Percent Recovery of total radioactivity,"Urine 120-144 h, Rat 03, 15 mg/kg IV",0.3 % Dose
same,Percent Recovery of total radioactivity,"Urine 144-168 h, Mean, 15 mg/kg IV",0.2 % Dose
same,Percent Recovery of total radioactivity,"Urine 144-168 h, Rat 01, 15 mg/kg IV",0.2 % Dose
same,Percent Recovery of total radioactivity,"Urine 144-168 h, Rat 02, 15 mg/kg IV",0.1 % Dose
same,Percent Recovery of total radioactivity,"Urine 144-168 h, Rat 03, 15 mg/kg IV",0.2 % Dose
same,Percent Recovery of total radioactivity,"Urine Subtotal (0-168 h), Mean, 15 mg/kg IV",51.2 % Dose
same,Percent Recovery of total radioactivity,"Urine Subtotal (0-168 h), Rat 01, 15 mg/kg IV",51.2 % Dose
same,Percent Recovery of total radioactivity,"Urine Subtotal (0-168 h), Rat 02, 15 mg/kg IV",47.5 % Dose
same,Percent Recovery of total radioactivity,"Urine Subtotal (0-168 h), Rat 03, 15 mg/kg IV",55.1 % Dose
same,Fecal excretion in first 24 h,"rat, in vivo",36.7 % of the dose
same,"Fecal excretion in first 24 h, share of radioactivity excreted in feces","rat, in vivo",87%
same,Share of urinary and fecal excretion in first 24 h,"rat, in vivo",~86%
same,Urinary excretion in first 24 h,"rat, in vivo",43.8 % of the dose
same,"Urinary excretion in first 24 h, share of radioactivity excreted in urine","rat, in vivo",86%
